Paper PMC6130628, “Some pharmacokinetic parameters of salvianolic acid A following single-dose oral administration to rats” (Pharmaceutical Biology, 2018)
Read-outs that look alike come from different tables or passages of the source.

How the values were obtained:
[1] = Bidirectional transport experiments in the Caco-2 cell culture model; format: in vitro ADME; conditions: human; for Papp A→B at 180 min: read-out: Papp Apical → basolateral; for Papp B→A at 180 min: read-out: Papp Basolateral → apical
Experimental: (§1) Caco-2 cells (passage number 34–36, American Type Culture Collection, Manassas, VA) were cultured at 37 °C in an atmosphere of 5% CO2 and 90% relative humidity in Dulbecco’s modified Eagle’s medium supplemented with 10% fetal bovine serum, 1% penicillin–streptomycin, 1% HEPES, 1% sodium pyruvate and 1% minimal essential medium nonessential amino acids. After harvesting at 90% confluence, the cells were seeded on to 0.4 μm polycarbonate membrane transwell inserts (12 mm diameter) at a density of 1.5 × 10^5 cells/cm^2. The culture media was changed every other day during the first 7 days after seeding and once a day thereafter. Cell monolayers were ready for experiments from 20 to 24 days postseeding.
(§2) Experiments in triplicate were performed in HBSS (pH =7.4).To ensure the stability of Sal A in HBSS, VC was applied in this study as stabilizer. The monolayers were washed three times with prewarmed HBSS (37 °C) before use. The integrity of the Caco-2 monolayers was monitored by measuring the transepithelial electrical resistance, and only monolayers with values ≥400 Ω/cm^2 were used. The monolayers were incubated with HBSS at 37 °C for 30 min, and then the incubation medium was aspirated. Afterwards, bidirectional transport experiments were conducted. Sal A solution of appropriate concentrations in HBSS (containing VC 1 0^−4 mol/L) were loaded to the donor compartments and the blank HBSS (containing VC 1 0^−4 mol/L) was added to the receiver compartments. Seven sequential samples (50 μL) were collected at different times (0, 30, 60, 90, 120, 150, 180 min) from the receiver side. The same volume of receiver medium was replaced after each sampling. The collected samples were added into tubes with 40 μL MeOH–H2O (50:50, v/v, containing VC 100 μg/mL). Then, 10 μL of the IS spiking solution (butyl paraben, 1 μg/mL) was added. After centrifugation at 13,400 rpm for 5 min, 20 μL of the supernatant was injected to the LC–MS system.
(§3) Influence of the stabilizer on the transport of Sal A has also been tested under the condition of different concentrations of VC. The samples were collected, treated and analyzed according to the same procedure.
(§4) The apparent permeability coefficient (Papp) was calculated according to the following equation: Papp=(ΔQ/Δt)/(A×C0) where ΔQ/Δt is the linear appearance rate of the tested compound in the receiver compartments, A is the surface area of the cell monolayer and C0 is the initial concentration of the tested compound in the donor side.

Caco-2 cell monolayer = assay: as above; format: in vitro ADME
Experimental: as §1, §2, §3, §4

[2] = Excretion of Sal A from rats (feces, urine, bile; UPLC–MS/MS); format: in vivo, Sprague-Dawley rats; conditions: single oral dose 20 mg/kg
Experimental: Twelve healthy, intact Sprague-Dawley rats (male/female, 1/1, 185-215 g, Certificate No. SCXK 2006-0009) were purchased from Vital River Laboratories (Beijing, China). The rats were maintained in air-conditioned animal quarters with alternating 12 h light/dark cycles at a room temperature of 22 ± 2 °C and a relative humidity of 50 ± 10%. The rodents were given a commercial rat chow and water ad libitum. The experiment started after acclimation to the facilities for 7 days. The studies were conducted under protocols approved by the Ethics Committee of Laboratory Animals of the Affiliated Hospital of Qingdao University ([…] 2013-2-4-01). In the urine and feces excretion studies, rats were treated as follows. After acclimation to the facilities for 7 days in metabolism cages and being fasted overnight (∼12 h) with free access to water, six rats (male/female, 1/1) were given a single dose of Sal A at 20 mg/kg orally. Blank feces and urine were got prior to administration. […] These samples were immediately frozen and maintained at -80 °C until analysis. In the bile excretion study, rats were treated as follows. After acclimation to the facilities for 7 days and being fasted overnight (∼12 h) with free access to water, six rats (male/female, 1/1) received a bile duct intubation surgery. An oral dose of 20 mg/kg were given to the postoperative awake rats, and bile samples were collected prior and after the administration (from 0 to 2, 2 to 4, 4 to 6, 6 to 8, 8 to 12 and 12 to 24 h). The samples were immediately frozen and maintained at -80 °C immediately until analysis. After drying, feces were soaked in purified water containing VC 100 μg/mL (5 mL/g) overnight and treated with ultrasonic for 10 min. Homogenate was centrifuged at 13,400 rpm for 10 min. 200 μL of the supernatant was got for the UPLC-MS/MS analysis, along with 200 μL of urine and bile samples. Sample preparation was the same as sample preparation in “Pharmacokinetic study in vivo”.

[3] = Caco-2, pH 7.4, Sal A 10^–4/3 mol/L, HBSS pH 7.4, VC 10^−4 mol/L
[4] = Caco-2, pH 7.4, Sal A 10^–4/9 mol/L, HBSS pH 7.4, VC 10^–4 mol/L
[5] = Caco-2, pH 7.4, Sal A 10^–4/9 mol/L, VC 10^–3/3 mol/L
[6] = Caco-2, pH 7.4, Sal A 10^–4/9 mol/L, VC 10^–3 mol/L
[7] = Caco-2, pH 7.4, Sal A 10^–4/27 mol/L, HBSS pH 7.4, VC 10^−4 mol/L

O=C(/C=C/c1ccc(O)c(O)c1/C=C/c1ccc(O)c(O)c1)O[C@H](Cc1ccc(O)c(O)c1)C(=O)O [Sal A, Salvianolic acid A]
Papp A→B at 180 min [1, 3]: 0.156 ± 0.0412 ×10⁻⁶ cm/s | Papp B→A at 180 min [1, 3]: 0.508 ± 0.0118 ×10⁻⁶ cm/s | Papp A→B at 180 min [1, 4]: 0.152 ± 0.0055 ×10⁻⁶ cm/s | Papp B→A at 180 min [1, 4]: 0.605 ± 0.0175 ×10⁻⁶ cm/s | Papp A→B at 180 min [1, 5]: 0.155 ± 0.003 ×10⁻⁶ cm/s | Papp B→A at 180 min [1, 5]: 0.507 ± 0.087 ×10⁻⁶ cm/s | Papp A→B at 180 min [1, 6]: 0.153 ± 0.0028 ×10⁻⁶ cm/s | Papp B→A at 180 min [1, 6]: 0.478 ± 0.0453 ×10⁻⁶ cm/s | Papp A→B at 180 min [1, 7]: 0.641 ± 0.0576 ×10⁻⁶ cm/s | Papp B→A at 180 min [1, 7]: 0.987 ± 0.121 ×10⁻⁶ cm/s | efflux ratio at 180 min ([1]; pH 7.4, Caco-2 monolayer, read-out: ratio of PB–A to PA–B (Papp basolateral to apical / apical to basolateral)): ~3 | influence of VC concentration on the amount of Sal A transported (Caco-2 cell monolayer; different VC concentrations, p> 0.05): no significant difference | membrane permeability (classification by Papp) (Caco-2 cell monolayer; poorly absorbed: Papp <1 × 10^−6 cm/s): poor membrane permeability | excretion via bile, mean % of the dose ([2]; bile duct intubated rats, 0–24 h): 0.00373% | dose excreted ([2]; both sexes, Sprague-Dawley, rat, feces, bile and urine, rats, read-out: recovery (accumulated excretion through feces, bile and urine), % of administered dose): < 1% | urinary excretion, mean % of the dose ([2]; rats, 0–96 h): 0.00252%
